In patent publication US8648091B2, “Dihydroquinolinones as ectoparasiticides” (Novartis AG, priority 2007, dated 2014):

Tests used:
[1] = system: Ctenocephalides felis (cat flea); test: Activity in vitro against Ctenocephalides felis (cat flea), artificial feeding system; settings: fleas fed on treated blood for 24 hours, dead fleas
Experimental: 1. Activity In Vitro Against Ctenocephalides felis (Cat Flea). A mixed adult population of fleas is placed in a suitably formatted 96-well plate allowing fleas to access and feed on treated blood via an artificial feeding system. Each compound is tested by serial dilution in order to determine its minimal effective dose (MED). Fleas are fed on treated blood for 24 hours, after which the compound's effect is recorded. Insecticidal activity is determined on the basis of the number of dead fleas recovered from the feeding system.

[2] = system: Rhipicephalus sanguineus nymphs; test: In-vivo test against Rhipicephalus sanguineus nymphs on Mongolian gerbils; parameters: species or system Mongolian gerbils (Meriones unguiculatus); settings: spray (or spot-on) application, tick number reduction vs placebo, Abbot's formula
Experimental: 4. In-Vivo Test Against Rhipicephalus sanguineus Nymphs on Mongolian Gerbils (Meriones unguiculatus) On day 0, gerbils are treated with the test compound at a given dose by spray (or spot-on) application. On day +1 (+2), the animals are infested with nymphs of Rhipicephalus. sanguineus. Ticks are left on the animals until full repletion. Seven days after infestation nymphs dropped off fully engorged are collected and counted. They are kept until molting to also evaluate growth regulating activity of the test compound. Efficacy in killing (and growth regulating) is expressed as a tick number (and molted tick number) reduction in comparison with a placebo treated group, using the Abbot's formula.

Dermanyssus gallinae = test: Activity in vitro against Dermanyssus gallinae; settings: at 63 ppm; 10 minutes contact, incubated 5 days
Experimental: 3. Activity In Vitro Against Dermanyssus gallinae A clean female mite population is used to seed a suitably formatted 96-well plate containing the test substances to be evaluated for antiparasitic activity. Each compound is tested by serial dilution in order to determine its Minimal Effective Dose (MED). Mites are left in contact with the test compound for 10 minutes and are then incubated at 25° C. and 60% relative humidity (RH) for 5 days, during which the test compound's effect is monitored. Acaricidal activity is confirmed if mites are dead without having laid eggs. Egg-laying and ensuing mite development are also recorded to identify possible growth-regulating activity.

Ixodes ricinus = test: In-vivo test against ticks (Ixodes ricinus) on cats; settings: 25 mg/kg spray (1% solution in Polypropylenglycol), vs placebo, Abbot's formula
Experimental: 6. In-Vivo Test Against Ticks (Ixodes ricinus) on Cats
(§1) Cats are separated into one treatment and one control group (4 cats per group). On day 0, the cats are treated with the test compound at a dose of 25 mg/kg (1% solution in Polypropylenglycol) by spray application. On day +1, the animals are infested with unfed adult ticks (sex ratio 1:1). Evaluation of efficacy is performed at 48 h, and then weekly 48 h after reinfestation with ticks by counting the numbers of dead and live ticks recovered from the animals. Efficacy is expressed as comparison with a placebo treated group using the Abbot's formula. Infestation can be repeated at weekly intervals until efficacy drops.

Rhipicephalus sanguineus [3] = test: Activity in vitro against ticks, microplate pre-coated with test compound; settings: at 10 ppm; percentage of dead ticks compared to untreated controls
Experimental: (§2) 2. Activity In Vitro Against Ticks 5-10 ticks of different species (i.e. Rhipicephalus sanguineus, Dermacentor spp., etc.) are distributed into a microplate pre-coated with test compound. Each compound is tested by serial dilution in order to determine its Minimal Effective Dose (MED). The microplates are then incubated at 28° C. and 80% humidity until evaluation. At different time points, ticks are excited by carbon dioxide flush and/or heat. […] If the ticks fail to respond to the stimulation, they are considered dead and the compound is scored as active at the tested concentration. Activity is calculated as a percentage of dead ticks compared to untreated controls.

Amblyomma variegatum = test: as above; settings: at 32 ppm; percentage of dead ticks compared to untreated controls
Experimental: as §2

Dermacentor variabilis = test: as above; settings: at 10 ppm; percentage of dead ticks compared to untreated controls
Experimental: as §2

Rhipicephalus sanguineus [4] = test: In-vivo test against ticks (Rhipicephalus sanguineus) on dogs; parameters: species or system Dogs of the beagle breed; settings: for six weeks; 25 mg/kg spot-on (15% solution in Transcutol); weekly reinfestation; vs placebo, Abbot's formula
Experimental: as §1, with “5. In-Vivo Test Against Ticks (Rhipicephalus sanguineus) on Dogs Dogs of the beagle breed” for “Cats”, “dogs” for “cats”, “(15%” for “(1%”, “Transcutol)” for “Polypropylenglycol)”, “spot-on application (between the shoulder blades).” for “spray application.”

Q: C=C(C)C1CCC(C)(/C=C/c2ccc3c(c2O)C(O)(c2ccc(OC)cc2)C(OC)C(=O)N3)O1 (stereo not drawn) [compound No. 8] was tested. Which mean efficacy ([1]; at 100 ppm) did it give?
A: 90%

Q: What about the mean efficacy ([2]; at 10 ppm) of the same compound?
A: 60%

Q: With COc1ccc(C2(O)c3c(ccc(/C=C/C4(C)CCC(C(C)(C)O)O4)c3O)NC(=O)C2OC)cc1 (stereo not drawn) [compound No. 9] as the compound, how does the mean efficacy ([1]; at 63 ppm) read?
A: 70%

Q: How did the mean efficacy (Dermanyssus gallinae) turn out when COc1ccc(C2(O)c3c(ccc(/C=C/C4(C)CCC(C)(C)CO4)c3O)NC(=O)C2OC)cc1 (stereo not drawn) [compound No. 11] was run?
A: 90%

Q: What about the mean efficacy ([1]; at 32 ppm) of the same compound?
A: 95%

Q: And the activity (Ixodes ricinus; after one week)?
A: 95%

Q: And the activity (Ixodes ricinus; after two weeks)?
A: 70%

Q: And the mean efficacy (Rhipicephalus sanguineus [3])?
A: 100%

Q: And the mean efficacy (Amblyomma variegatum)?
A: 90%

Q: What about the mean efficacy (Dermacentor variabilis) of the same compound?
A: 100%

Q: What about the mean efficacy ([2]; at 3.2 ppm) of the same compound?
A: 95%

Q: And the activity (Rhipicephalus sanguineus [4])?
A: above 90%
